Measurements taken from US20040192581A1, “Topical anti-infective formulations” (priority 2002, published 2004).

System: S. aureus
Assay: In vitro efficacy of nisin cream versus nisin in PBS, viable cell count
Assay type: cell-based
Conditions: 37° C. for 60 minutes
Method: A topical cream (100 g) was prepared by heating the waxes and oils to about 70° C. Nisin in an aqueous solution was added after the cream had cooled to room temperature. The following ingredients were mixed in a 250 mL glass beaker until a homogenous compound was formed:
To test the anti-infective activity of the nisin-based cream, and to compare this activity to that of the same concentration of nisin in PBS, 20 μL of a suspension of 9×10^8 CFU/mL S. aureus was added to 1 g of cream and 1 mL of PBS at the nisin concentrations indicated in Table I. The samples were vortexed to mix and incubated at 37° C. for 60 minutes. 1 mL of mineral oil was added to the cream to facilitate pipetting and then serial dilutions were plated for enumeration of viable cells. The data in Table I show the viable cells for each nisin concentration.

Nisin
viable cells, PBS (nisin 0.5 μg/ml in PBS): TNTC | viable cells, Cream (nisin 0.5 μg/ml in cream): 1082 cfu/ml | viable cells, PBS (nisin 2.5 μg/ml in PBS): TNTC | viable cells, Cream (nisin 2.5 μg/ml in cream): 140 cfu/ml | viable cells, PBS (nisin 12.5 μg/ml in PBS): 482 cfu/ml | viable cells, Cream (nisin 12.5 μg/ml in cream): 12 cfu/ml
